Assay results taken from patent publication US20260049076A1, “Tertiary Amine Substituted Bicyclic Compounds Useful as T Cell Activators” (BRISTOL-MYERS SQUIBB COMPANY, priority 2022, published 2026).

How the values were obtained:
human DGKα = target: T1, human DGKα (Homo sapiens, UniProt P23743); assay: In vitro DGK inhibition assay, DGKα liposome (LIPGLO) assay; type: biochemical; conditions: read-out: Enzyme Inhibition DGKalpha IC50
T1 construct: TVMV protease cleavage site (C); Hexa-His (C); made in house; host or cells: Sf9 insect cells (baculovirus)
Method in brief: (§1)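 Baculovirus/Sf9-expressed His-tagged human DGKα or DGKζ (5 nM) on extruded liposomes (2 mM PS, 0.25 mM DAG, 2.75 mM PC) in MOPS pH 7.5 with MgCl2, CaCl2 and 150 μM ATP, 1 h.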

human DGKζ = target: T2, human DGKζ (Homo sapiens, UniProt Q13574); assay: In vitro DGK inhibition assay, DGKζ liposome (LIPGLO) assay; type: biochemical; conditions: read-out: Enzyme Inhibition DGKzeta IC50
T2 construct: TVMV protease cleavage site (C); Hexa-His (C); made in house; host or cells: Sf9 insect cells (baculovirus)
Method in brief: as §1

DGKalpha = DGKalpha (Homo sapiens, UniProt P23743); assay: Translocation DGKalpha; type: cell-based
DGKzeta = DGKzeta (Homo sapiens, UniProt Q13574); assay: Translocation DGKzeta; type: cell-based
DGKzeta, sequence (Q13574 whole entry): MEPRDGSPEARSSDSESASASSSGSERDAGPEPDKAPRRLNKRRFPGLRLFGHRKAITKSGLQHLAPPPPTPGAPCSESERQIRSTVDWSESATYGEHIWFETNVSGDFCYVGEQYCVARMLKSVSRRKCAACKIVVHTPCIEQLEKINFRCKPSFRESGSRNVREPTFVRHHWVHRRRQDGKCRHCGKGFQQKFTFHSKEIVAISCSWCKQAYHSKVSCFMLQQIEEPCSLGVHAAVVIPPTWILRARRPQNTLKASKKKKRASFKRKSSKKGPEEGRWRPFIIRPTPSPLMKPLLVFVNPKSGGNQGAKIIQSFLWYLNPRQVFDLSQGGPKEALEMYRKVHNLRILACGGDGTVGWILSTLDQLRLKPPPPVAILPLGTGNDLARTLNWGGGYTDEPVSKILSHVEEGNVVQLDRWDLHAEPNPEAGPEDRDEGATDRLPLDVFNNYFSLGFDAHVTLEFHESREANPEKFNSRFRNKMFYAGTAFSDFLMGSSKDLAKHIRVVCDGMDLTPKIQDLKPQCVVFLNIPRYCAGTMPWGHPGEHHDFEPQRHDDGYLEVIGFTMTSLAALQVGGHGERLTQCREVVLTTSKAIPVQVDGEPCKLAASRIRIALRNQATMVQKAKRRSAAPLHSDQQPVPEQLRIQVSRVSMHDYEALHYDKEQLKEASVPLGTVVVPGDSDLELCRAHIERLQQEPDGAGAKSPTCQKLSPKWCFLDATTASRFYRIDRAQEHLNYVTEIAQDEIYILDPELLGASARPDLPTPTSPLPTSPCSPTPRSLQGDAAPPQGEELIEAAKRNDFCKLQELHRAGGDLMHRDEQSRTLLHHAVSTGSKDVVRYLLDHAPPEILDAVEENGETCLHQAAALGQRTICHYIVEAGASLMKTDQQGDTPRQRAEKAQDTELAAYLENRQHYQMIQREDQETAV

DGKalpha, sequence (P23743 whole entry): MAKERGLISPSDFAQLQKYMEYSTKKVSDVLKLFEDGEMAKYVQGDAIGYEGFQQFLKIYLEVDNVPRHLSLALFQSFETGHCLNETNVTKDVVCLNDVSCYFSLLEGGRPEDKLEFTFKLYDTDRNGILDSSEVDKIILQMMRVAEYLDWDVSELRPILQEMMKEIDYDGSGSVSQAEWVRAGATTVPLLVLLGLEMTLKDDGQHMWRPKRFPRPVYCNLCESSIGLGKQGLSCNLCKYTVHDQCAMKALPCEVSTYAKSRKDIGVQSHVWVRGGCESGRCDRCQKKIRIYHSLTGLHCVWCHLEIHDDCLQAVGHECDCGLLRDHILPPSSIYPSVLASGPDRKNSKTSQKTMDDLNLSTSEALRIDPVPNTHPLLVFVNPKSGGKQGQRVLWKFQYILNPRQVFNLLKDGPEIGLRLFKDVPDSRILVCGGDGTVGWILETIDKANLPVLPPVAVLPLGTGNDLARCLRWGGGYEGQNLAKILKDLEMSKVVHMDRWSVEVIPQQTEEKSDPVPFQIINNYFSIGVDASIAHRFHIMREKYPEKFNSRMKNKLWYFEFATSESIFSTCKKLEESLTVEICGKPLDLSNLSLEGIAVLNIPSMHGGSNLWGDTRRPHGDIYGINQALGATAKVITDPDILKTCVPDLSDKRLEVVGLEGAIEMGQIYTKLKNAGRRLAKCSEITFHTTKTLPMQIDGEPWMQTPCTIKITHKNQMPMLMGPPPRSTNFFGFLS
T1 sequence (P23743 with tags, fused parts or gaps): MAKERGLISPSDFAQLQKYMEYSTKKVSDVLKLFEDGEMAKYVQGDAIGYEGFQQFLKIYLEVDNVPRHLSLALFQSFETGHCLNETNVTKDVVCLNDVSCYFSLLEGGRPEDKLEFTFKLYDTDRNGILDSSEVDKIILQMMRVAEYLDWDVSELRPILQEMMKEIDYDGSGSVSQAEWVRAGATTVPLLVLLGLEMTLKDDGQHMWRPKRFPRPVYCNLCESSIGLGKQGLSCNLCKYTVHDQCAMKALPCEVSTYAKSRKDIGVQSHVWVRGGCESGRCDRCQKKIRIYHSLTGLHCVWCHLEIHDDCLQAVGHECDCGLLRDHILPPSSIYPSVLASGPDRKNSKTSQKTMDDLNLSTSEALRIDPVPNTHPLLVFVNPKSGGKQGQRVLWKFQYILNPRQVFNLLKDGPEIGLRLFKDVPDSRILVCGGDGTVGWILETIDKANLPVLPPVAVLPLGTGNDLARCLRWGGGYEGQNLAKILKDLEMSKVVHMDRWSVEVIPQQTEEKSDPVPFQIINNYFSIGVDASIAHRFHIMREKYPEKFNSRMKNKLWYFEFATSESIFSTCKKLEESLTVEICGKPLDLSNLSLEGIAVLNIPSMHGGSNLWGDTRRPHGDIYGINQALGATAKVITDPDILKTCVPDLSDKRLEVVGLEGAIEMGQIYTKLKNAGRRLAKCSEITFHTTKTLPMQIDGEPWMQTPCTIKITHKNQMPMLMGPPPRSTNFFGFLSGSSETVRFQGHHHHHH
T2 sequence (Q13574 with tags, fused parts or gaps isoform Q13574-4): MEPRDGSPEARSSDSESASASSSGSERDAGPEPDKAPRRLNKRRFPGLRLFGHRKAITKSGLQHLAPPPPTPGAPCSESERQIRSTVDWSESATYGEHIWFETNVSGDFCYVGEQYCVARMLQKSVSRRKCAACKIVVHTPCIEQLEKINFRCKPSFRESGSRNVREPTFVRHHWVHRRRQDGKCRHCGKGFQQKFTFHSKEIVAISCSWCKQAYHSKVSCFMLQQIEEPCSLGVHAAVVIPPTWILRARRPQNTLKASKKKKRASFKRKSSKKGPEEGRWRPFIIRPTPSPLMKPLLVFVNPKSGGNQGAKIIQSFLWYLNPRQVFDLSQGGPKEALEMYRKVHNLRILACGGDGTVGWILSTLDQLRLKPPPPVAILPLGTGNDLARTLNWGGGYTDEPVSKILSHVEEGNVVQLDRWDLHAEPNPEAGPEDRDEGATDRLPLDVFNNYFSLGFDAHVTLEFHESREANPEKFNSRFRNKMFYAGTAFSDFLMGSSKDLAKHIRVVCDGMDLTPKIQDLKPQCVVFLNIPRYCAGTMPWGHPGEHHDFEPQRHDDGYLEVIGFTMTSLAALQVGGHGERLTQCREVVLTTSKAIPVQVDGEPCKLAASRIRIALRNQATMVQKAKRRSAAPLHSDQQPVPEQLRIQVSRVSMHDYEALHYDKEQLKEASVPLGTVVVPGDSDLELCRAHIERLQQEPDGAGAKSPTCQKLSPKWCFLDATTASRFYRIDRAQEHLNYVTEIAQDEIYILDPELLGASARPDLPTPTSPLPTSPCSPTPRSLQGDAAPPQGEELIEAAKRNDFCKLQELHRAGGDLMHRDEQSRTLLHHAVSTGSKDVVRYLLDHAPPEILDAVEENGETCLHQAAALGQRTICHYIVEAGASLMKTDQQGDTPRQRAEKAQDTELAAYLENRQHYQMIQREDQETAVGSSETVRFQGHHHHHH

IC50 (human DGKα)	IC50 (human DGKζ)	EC50 (DGKalpha)	EC50 (DGKzeta)	SMILES
4700 nM	1100 nM	> 3000 nM	91 nM	Cn1c(=O)cc(N(CC2CC2)c2ccc(OC(F)F)nc2)c2nc(C#N)ccc21 [Example 112, 8-((cyclopropylmethyl)(6-(difluoromethoxy)pyridin-3-yl)amino)-5-methyl-6-oxo-5,6-dihydro-1,5-naphthyridine-2-carbonitrile]
> 38000 nM	> 38000 nM	> 1500 nM	130 nM	COc1cccc(-c2cc(N(CC3CC3)c3cc(=O)n(C)c4ccc(C#N)nc34)ccc2C2CC2)c1 [Example 129, 8-((6-cyclopropyl-3′-methoxy-[1,1′-biphenyl]-3-yl)(cyclopropylmethyl)amino)-5-methyl-6-oxo-5,6-dihydro-1,5-naphthyridine-2-carbonitrile]
> 38000 nM	> 38000 nM	> 3000 nM	160 nM	Cn1c(=O)cc(N(CC2CC2)c2ccc(C3CC3)c(-c3ccc(C(N)=O)cc3)c2)c2nc(C#N)ccc21 [Example 130, 5′-((6-cyano-1-methyl-2-oxo-1,2-dihydro-1,5-naphthyridin-4-yl)(cyclopropylmethyl)amino)-2′-cyclopropyl-[1,1′-biphenyl]-4-carboxamide]
> 38000 nM	18000 nM	> 3000 nM	100 nM	Cn1c(=O)cc(N(CC2CC2)c2ccc(C3CC3)c(-c3ccc(F)cc3)c2)c2nc(C#N)ccc21 [Example 127, 8-((6-cyclopropyl-4′-fluoro-[1,1′-biphenyl]-3-yl)(cyclopropylmethyl)amino)-5-methyl-6-oxo-5,6-dihydro-1,5-naphthyridine-2-carbonitrile]
> 38000 nM	3600 nM	> 3000 nM	200 nM	Cc1cc(N(CC2CC2)c2cc(=O)n(C)c3ccc(C#N)nc23)ccc1C1CC1 [Example 132]
7900 nM	1400 nM	> 3000 nM	130 nM	Cn1c(=O)cc(N(CC2CC2)c2ccc(C3CC3)nc2)c2nc(C#N)ccc21 [Example 114, 8-((cyclopropylmethyl)(6-cyclopropylpyridin-3-yl)amino)-5-methyl-6-oxo-5,6-dihydro-1,5-naphthyridine-2-carbonitrile]
> 38000 nM	> 38000 nM	> 3000 nM	130 nM	Cn1c(=O)cc(N(CC2CC2)c2ccc(C3CC3)c(-c3ccc(Cl)cc3)c2)c2nc(C#N)ccc21 [Example 128, 8-((4′-chloro-6-cyclopropyl-[1,1′-biphenyl]-3-yl)(cyclopropylmethyl)amino)-5-methyl-6-oxo-5,6-dihydro-1,5-naphthyridine-2-carbonitrile]
3800 nM	2900 nM	750 nM	540 nM	Cc1ccc(N(CC2CC2)c2cc(=O)n(C)c3ccc(C#N)nc23)cc1 [Example 62, 8-((cyclopropylmethyl)(p-tolyl)amino)-5-methyl-6-oxo-5,6-dihydro-1,5-naphthyridine-2-carbonitrile]
8700 nM	2400 nM	> 3000 nM	110 nM	CN(C)c1ccc(N(CC2CC2)c2cc(=O)n(C)c3ccc(C#N)nc23)cc1 [Example 116, 8-((cyclopropylmethyl)(4-(dimethylamino)phenyl)amino)-5-methyl-6-oxo-5,6-dihydro-1,5-naphthyridine-2-carbonitrile]
8800 nM	4700 nM	> 3000 nM	160 nM	Cc1cc(N(CC2CC2)c2cc(=O)n(C)c3ccc(C#N)nc23)ccc1OC(F)F [Example 117, 8-((cyclopropylmethyl)(4-(difluoromethoxy)-3-methylphenyl)amino)-5-methyl-6-oxo-5,6-dihydro-1,5-naphthyridine-2-carbonitrile]
19000 nM	22000 nM	> 3000 nM	170 nM	Cn1c(=O)cc(N(CC2CC2)c2ccc(C3CC3)c(-c3ccccc3)c2)c2nc(C#N)ccc21 [Example 122, 8-((6-cyclopropyl-[1,1′-biphenyl]-3-yl)(cyclopropylmethyl)amino)-5-methyl-6-oxo-5,6-dihydro-1,5-naphthyridine-2-carbonitrile]
1900 nM	2700 nM	1100 nM	570 nM	Cn1c(=O)cc(N(CC2CC2)c2ccc3occc3c2)c2nc(C#N)ccc21 [Example 65, 8-(benzofuran-5-yl (cyclopropylmethyl)amino)-5-methyl-6-oxo-5,6-dihydro-1,5-naphthyridine-2-carbonitrile]
> 38000 nM	34000 nM	> 3000 nM	180 nM	Cn1c(=O)cc(N(CC2CC2)c2ccc(C3CC3)c(-c3ccc(OCC4CC4)cc3)c2)c2nc(C#N)ccc21 [Example 131, 8-((6-cyclopropyl-4′-(cyclopropylmethoxy)-[1,1′-biphenyl]-3-yl) (cyclopropylmethyl)amino)-5-methyl-6-oxo-5,6-dihydro-1,5-naphthyridine-2-carbonitrile]
